This is an account of results in PMC6582051, “Identification of a natural ligand of the hazel allergen Cor a 1” (Scientific Reports, 2019).

This experiment has as its target T1, Cor a 1.0401 (Corylus avellana, UniProt Q9SWR4).
T1 construct: gene CORA1.0401; tagless full-length recombinant, 160 aa, E. coli (pET11a, codon-optimised synthetic gene), 15N or 13C/15N labelled
T1 sequence (Q9SWR4 2-161 limits assumed): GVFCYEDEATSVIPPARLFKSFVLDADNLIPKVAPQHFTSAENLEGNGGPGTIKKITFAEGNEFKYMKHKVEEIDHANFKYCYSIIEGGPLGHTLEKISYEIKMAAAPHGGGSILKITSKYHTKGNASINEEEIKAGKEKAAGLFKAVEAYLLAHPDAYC
Put plainly: 1H, […] HSQC NMR titration. The class given is binding. The conditions noted are these: 298 K, 60 uM protein, up to equimolar ligand, 2.2% DMSO; hydrophobic pocket.

For `O=c1c(O)c(-c2ccc(O)c(O)c2)oc2cc(O)cc(O)c12` [quercetin], the “1H,15N HSQC NMR titration” value is recorded as “amino acids that were strongest affected by quercetin binding are highlighted in red”.
